This is an account of results in patent US20040039053A1, “Use of(-) (3-halomethylphenoxy) (4-halophenyl) acetic acid derivatives for treatment of insulin resistance, type 2 diabetes, hyperlipidemia and hyperuricemia” (priority 2000, published 2004).

Series [1] addresses T1, CYP2A6 (Homo sapiens, UniProt P11509).
T1 sequence (P11509 1-494): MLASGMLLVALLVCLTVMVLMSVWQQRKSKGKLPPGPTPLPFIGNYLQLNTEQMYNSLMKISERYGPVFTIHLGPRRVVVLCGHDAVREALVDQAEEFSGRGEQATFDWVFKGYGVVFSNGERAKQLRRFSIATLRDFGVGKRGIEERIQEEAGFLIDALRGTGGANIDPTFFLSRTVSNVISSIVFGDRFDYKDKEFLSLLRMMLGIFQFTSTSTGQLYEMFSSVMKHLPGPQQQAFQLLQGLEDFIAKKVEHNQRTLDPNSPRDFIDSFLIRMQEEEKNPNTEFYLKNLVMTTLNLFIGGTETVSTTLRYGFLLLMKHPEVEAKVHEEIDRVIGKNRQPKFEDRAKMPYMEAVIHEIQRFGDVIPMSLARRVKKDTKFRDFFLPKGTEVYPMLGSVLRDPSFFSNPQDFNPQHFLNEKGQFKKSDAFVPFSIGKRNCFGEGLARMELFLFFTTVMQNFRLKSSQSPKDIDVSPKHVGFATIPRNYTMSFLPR
The series is described as follows: Cytochrome P450 isoform inhibition in human hepatic microsomes, coumarin (Example 18). The settings on record: positive control 250 μM; VC 32.0 ± 1.4.

The subject of series [2] is C57BL/6J db/db mice. Briefly: Prevention of diabetes and alleviation of hypertriglyceridemia in db/db mice (Example 15). The series is classed as in vivo. The settings on record: 150 mg/kg/day in chow, 9 weeks; for plasma triglyceride levels with age, in words: 150 mg/kg/day. As for the experimental part:
Blood samples were taken at 8-10 AM once a week for 9 weeks under non-fasting condition. Food intake and body weight were measured every 1-3 days. Plasma glucose and triglyceride concentrations were determined calorimetrically using kits from Sigma Chemical Co (No. 315 and No. 339, St. Louis, Mo., USA). Plasma insulin levels were measured using RIA assay kit purchased from Linco Research (St. Charles, Mo.).

The subject of series [3] is Zucker fatty rats. Briefly: Short insulin tolerance test in Zucker fatty rats (Example 10). The settings on record: 50 mg/kg/day for 5 days. The series is classed as in vivo. The protocol: (§1) Prior to treatment, rats were assigned to 6 groups based on body weight. Each treatment group consisted of 8 rats. […] The gavage volume was 10 ml/kg. All rats received an oral glucose challenge (1.9 g/kg) 5.5 hours after the treatment and 4 hours after withdrawal of the food. Blood samples were taken at 0, 15, 30, 60, 90, 120, and 180 minutes following the glucose challenge for plasma glucose measurement. […] On day 5, rats received the intravenous insulin (0.75 U/kg) 5.5 hours after the last dose and 4 hours after withdrawal of the food. Blood samples were taken at 3, 6, 9, 12, 15 and 18 minutes following the insulin injection for plasma glucose measurement.

The test system of series [4] is Zucker fatty rats. Briefly: Oral glucose challenge in Zucker fatty rats (Example 10). In kind it is in vivo. The settings on record: racemate 100 mg/kg, enantiomers 50 and 100 mg/kg. The protocol:
as §1

Series [5] relates to Zucker Diabetic Fatty rats. The series is described as follows: Lipid lowering activity in Zucker Diabetic Fatty rats (Example 11). In kind it is in vivo. The settings on record: ZDF rats; for lowering of plasma triglyceride vs control at 7 days, in words: 37.5 mg/kg/day; for difference in plasma cholesterol between control and treated groups, in words: experiment I, 7 and 13 days. The protocol:
Male Zucker diabetic fatty (ZDF) rats were obtained from GMI Laboratories (Indianapolis, Ind.) at 9 weeks of age. Vehicle or enantiomers of halofenate administered by oral gavage on a daily basis starting at 74 days of age. Initial blood samples were obtained for analysis one day before treatment and at the indicated times in the treatment protocol. Blood was analyzed for plasma triglyceride and cholesterol by standard techniques.

Series [6] deals with diabetic ob/ob mice. The series is described as follows: Time course of glucose-lowering after a single oral dose in ob/ob mice (Example 8). The series is classed as in vivo. The settings on record: single oral dose 250 mg/kg; for onset and duration of glucose-lowering action, in words: 250 mg/kg.
In series [7] the test system is diabetic ob/ob mice. Briefly: Glucose and insulin lowering on daily oral administration for 5 days in ob/ob mice (Example 9).
Protocol: Animals were housed (4-5 mice/cage) under standard laboratory conditions at 22° C. and 50% relative humidity, and were maintained on a diet of Purina rodent chow and water ad libitum. Prior to treatment, blood was collected from the tail vein of each animal. Mice that had non-fasting plasma glucose levels between 300 and 520 mg/dL were used. Each treatment group consisted of 10 mice that were distributed so that the mean glucose levels were equivalent in each group as the start of the study. […] The gavage volume was 10 ml/kg. Blood samples were taken at 3, 6, 27, 30 and 120 hour after the first dose and analyzed for plasma glucose and insulin. The animals were fasted overnight (14 hours) before the 120 hours sampling. Plasma glucose concentrations were determined calorimetrically using glucose oxidase method (Sigma Chemical Co, St. Louis, Mo., USA). Plasma insulin concentrations were determined by using the Rat Insulin RIA Kit from Linco Research Inc. (St. Charles, Mo., USA). Significance difference between groups (comparing drug-treated to vehicle-treated) was evaluated using Student unpaired t-test.
In series [8] the test system is ZDF rats. Briefly: Plasma glucose in ZDF rats, (−) versus (+) halofenate (Example 13). The series is classed as in vivo. The settings on record: 50 mg/kg oral once a day for 3 days. As for the experimental part:
Male 8-9 week old ZDF rats were purchased from Genetic Models, Inc. (Indianapolis, Ind.). […] Rats that had 4-hour fasting plasma glucose levels between 200 and 500 mg/dL were used. […] The gavage volume was 5 ml/kg. Blood samples were taken at 5 hours post dose on day 2 and 3.

The test system of series [9] is oxonic acid induced hyperuricemic rats. Briefly: Plasma uric acid in oxonic acid induced hyperuricemic rats (Example 17). The series is classed as in vivo. The settings on record: oxonic acid hyperuricemic SD rats, oral 50 mg/kg for 3 days, 100 mg/kg on day 4, 6 hours post gavage. From the text: Male SD rats, weight 275-300 g were purchased from Charles River. […] To establish a hyperuricemic state, animals were put on a diet containing 2.5% (w/w) of oxonic acid (Sigma Chemical Co, St. Louis, Mo., USA) throughout the experiment. Oxonic acid elevates plasma uric acid by inhibiting uricase. Rats were screened for plasma uric acid levels 3 days after they were placed on the diet, and those that had extreme plasma uric acid levels were excluded. Rats were assigned to one of three groups and the mean uric acid levels were equivalent in each group. […] Oxonic acid was delivered in a liquid formulation containing 0.9% (w/v) methylcellulose. The gavage and injection volumes were 5 ml/kg. Blood samples were taken at 6 hours post oral gavage on day 4. Plasma uric acid levels were determined colorimetrically using the Infinity Uric Acid Reagent (Sigma Chemical Co, St. Louis, Mo., USA).

Where [10] appears, read: 250 mg/kg/day oral, listed as (−) enantiomer, 250 mg/kg/day.

Molecules are shown by their SMILES. “Also recorded” adds a separate entry of the source.

On to `N[C@@H]1C[C@H]1c1ccccc1` (racemic) [TRAN, tranylcypromine], for which the “Coumarin 7-HC Production” value in [1] stood at 0.00 ± 0.00 pmol/mg protein/min.
As for `CC(=O)NCCOC(=O)C(Oc1cccc(C(F)(F)F)c1)c1ccc(Cl)cc1` (single isomer, unassigned; (-)) [(−) halofenate, (−) 2-acetamidoethyl 4-chlorophenyl-(3-trifluoromethylphenoxy)-acetate], the “increase of plasma glucose levels with age, in words” value in [2] is “prevented or significantly delayed”. Besides, the “plasma insulin concentration with age, in words” value in series [2] is reported as “maintained the plasma insulin concentration”. Also, the results for the “plasma triglyceride levels with age, in words” value in series [2] and in [2] (listed as (−) Halofenate) were “alleviated hyperlipidemia” and “alleviated the increase of plasma triglyceride concentration”, respectively. Also, the “insulin sensitivity (slope of decline in glucose after i.v. insulin), in words” value in series [3] is on record as “improved significantly; also recorded: significantly more insulin sensitive”. In series [4] (single oral dose 5.5 hours before challenge), the “plasma glucose after oral glucose challenge, in words” value is reported as “most effective in lowering the glucose; also recorded: greatest degree of glucose-lowering of all the treated animals”. Further, the “incremental glucose area under the curve (AUC) vs control, in words” value in [4] (single oral dose) is on record as “significant reductions in the glucose area; also recorded: Significant changes (p<0.05)”. The “days of treatment with significant plasma cholesterol decrease vs control” value in [5] (12.5 mg/kg/day (Low dose)) is reported as 7 days. The “plasma triglyceride levels, in words” value in series [5] (37.5 mg/kg/day (High dose)) was “lowest triglyceride levels of all the treatment groups”. The “lowering of plasma triglyceride vs control at 7 days, in words” value is on record as “greater magnitude” in series [5] (37.5 mg/kg/day (High dose), listed as (−) enantiomer of halofenate) and “significant lowering of plasma triglyceride” in series [5] (37.5 mg/kg/day (High dose), listed as (−) enantiomer). The “plasma cholesterol course during treatment, in words” value in series [5] (13 days, racemate 50 mg/kg/day, enantiomers 25 mg/kg/day) is given as “plasma cholesterol declined with treatment”. Also, in series [5] (14 days, 37.5 mg/kg/day (High dose)), the “extent of plasma cholesterol lowering, in words” value is “greatest extent of cholesterol lowering”. The “difference in plasma cholesterol between control and treated groups, in words” value in series [5] (enantiomers 25 mg/kg/day) was “significant decrease in plasma cholesterol”; in [5] (enantiomers 25 mg/kg/day, listed as (−) enantiomer) it was “most active of the species tested”. Moreover, the “glucose lowering compared with the (+) enantiomer at 3 hour and 24 hour time points” value in series [6] was “more effective and significantly different (p<0.05) from the (+) enantiomer”. In addition, the “onset and duration of glucose-lowering action, in words” value in series [6] was “more rapid onset and sustained longer”; in [6] (listed as (−) enantiomer), “most rapid onset of action and the longest duration of action”. The “overnight fasting plasma insulin after 5 days, in words” value is “Significantly lower plasma insulins” in series [7] (125 mg/kg/day oral, listed as (−) enantiomer, 125 mg/kg/day) and “Significantly lower plasma insulins” in series [7] (setting [10]). For the same molecule, the “time points with significant plasma glucose reduction vs control” value in series [7] (250 mg/kg/day oral, 250 mg/kg/day) is on record as “also active at 3 hours”. In addition, the “time points with reduced plasma insulin vs control” value in [7] (setting [10]) was “greatest extent of reduced plasma insulin was noted at 27 and 30 hours”. Moreover, the “plasma glucose compared to vehicle-treated animals, in words” value in series [8] is “significantly reduced plasma glucose concentrations”. For the same molecule, the “plasma uric acid levels vs vehicle, in words” value in series [9] is “significantly reduced plasma uric acid levels”.
